Experimental data taken from patent US8921406B2, “5-ring heteroaromatic compounds and their use as binding partners for 5-HT5 receptors” (AbbVie Deutschland GmbH & Co. KG, priority 2005, dated 2014).
Structures can show the parent of a compound that is named as a salt.

biological target: T1, h5-HT5A receptor (Homo sapiens, UniProt P47898); experiment: h5-HT5A-[3H]5-CT binding assay; settings: membranes of HEK293 cells expressing h5-HT5A; 2.5 nM [3H]5-CT; read-out: Binding affinity 5-HT5A (Ki)
T1 construct: expressed in transfected cells
Description: 1. h5-HT5A-[^3H]5-CT Binding Assay
Membranes of HEK293 cells which permanently express the h5-HT5A receptor gene were incubated in 100 mM tris-HCl buffer (pH 7.7) containing 1 mM EDTA, in the presence of 2.5 nM [^3H]5-CT (total volume 600 μL). The total binding is defined as the binding that is observed when the membranes are incubated in the presence of only the radioligand. The inhibition induced by the compound is determined by incubation of cell membranes in the presence of the radioligand and various concentrations of the compound of interest. Nonspecific binding is defined as the [^3H]5-CT binding obtained by incubation of the membranes, the same as for the total binding, but in the presence of 10 μM methiothepine. Following incubation for 75 min at 30° C., the membrane suspension was filtered through a GF/B-Filter coated with 0.03% PEI, using a Skatron® harvesting system. The residual radioactivity in the filter was quantified by liquid scintillation counting.
Various concentrations of the test substances were used in both assays, and the Ki or IC50 values were determined.

T1 sequence (P47898 whole entry): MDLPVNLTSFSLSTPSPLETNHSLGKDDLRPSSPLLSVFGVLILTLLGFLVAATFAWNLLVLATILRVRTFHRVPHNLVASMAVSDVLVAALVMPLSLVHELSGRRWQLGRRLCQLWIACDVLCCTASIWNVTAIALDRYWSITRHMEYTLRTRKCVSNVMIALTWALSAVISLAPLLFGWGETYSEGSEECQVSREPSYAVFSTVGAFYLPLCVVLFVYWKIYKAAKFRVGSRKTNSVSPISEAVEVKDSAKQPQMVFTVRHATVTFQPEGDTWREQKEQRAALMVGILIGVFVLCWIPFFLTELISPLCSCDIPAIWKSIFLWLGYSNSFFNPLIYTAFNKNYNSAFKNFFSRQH

| Compound | Ki [µM] |
| --- | --- |
| COc1ccccc1Cn1cc(-c2ccc(C)s2)nc1N [Example 38, 1-(2-Methoxybenzyl)-4-(5-methylthiophene-2-yl)-1H-imidazole-2-ylamine] | < 0.6 |
| COc1ccccc1Cn1cc(-c2ccc(C(C)C)cc2)nc1N [Example 39, 4-(4-Isopropylphenyl)-1-(2-methoxybenzyl)-1H-imidazole-2-ylamine] | < 0.6 |
| COc1cccc(OC)c1Cn1cc(-c2ccc(C)c(C)c2)nc1N [Example 40, 1-(2,6-Dimethoxybenzyl)-4-(3,4-dimethylphenyl)-1H-imidazole-2-ylamine hydrochloride] | < 0.6 |
| COc1ccccc1Cn1c(Cc2ccccc2)cnc1N [Example 41, 5-Benzyl-1-(2-methoxybenzyl)-1H-imidazole-2-ylamine] | < 0.6 |
| COc1ccccc1Cn1cc(-c2cc3ccccc3o2)nc1N [Example 42, 4-Benzofuran-2-yl-1-(2-methoxybenzyl)-1H-imidazole-2-ylamine] | < 0.6 |
| COc1ccccc1Cn1cc(-c2cccc3ccccc23)nc1N [Example 43, 1-(2-Methoxybenzyl)-4-naphthalene-1-yl-1H-imidazole-2-ylamine] | < 0.6 |
| COc1ccccc1Cn1cc(-c2ccc(Oc3ccccc3)cc2)nc1N [Example 44, 1-(2-Methoxybenzyl)-4-(4-phenoxyphenyl)-1H-imidazole-2-ylamine hydrochloride] | < 0.6 |
| COc1ccccc1Cn1cc(-c2cccc([N+](=O)[O-])c2)nc1N [Example 45, 1-(2-Methoxybenzyl)-4-(3-nitrophenyl)-1H-imidazole-2-ylamine] | < 0.6 |
| COc1ccccc1Cn1cc(-c2ccc(OC(F)F)cc2)nc1N [Example 46, 4-(4-Difluoromethoxyphenyl)-1-(2-methoxybenzyl)-1H-imidazole-2-ylamine] | < 0.6 |
| COc1ccccc1Cn1cc(-c2csc(-c3ccccc3)n2)nc1N [Example 47, 1-(2-Methoxybenzyl)-4-(2-phenylthiazole-4-yl)-1H-imidazole-2-ylamine] | < 0.6 |
| COc1ccccc1Cn1cc(-c2ccc(OCc3ccccc3)cc2)nc1N [Example 48, 4-(4-Benzyloxyphenyl)-1-(2-methoxybenzyl)-1H-imidazole-2-ylamine] | < 0.6 |
| COc1ccccc1Cn1cc(-c2nccs2)nc1N [Example 49, 1-(2-Methoxybenzyl)-4-thiazole-2-yl-1H-imidazole-2-ylamine hydrochloride] | < 0.6 |
| COc1ccccc1Cn1cc(-c2ccc(C#N)s2)nc1N [Example 50, 5-[2-Amino-1-(2-methoxybenzyl)-1H-imidazole-4-yl]thiophene-2-carbonitrile] | < 0.6 |
| COc1ccccc1Cn1cc(-c2cccc(N)c2)nc1N [Example 51, 4-(3-Aminophenyl)-1-(2-methoxybenzyl)-1H-imidazole-2-ylamine] | < 0.6 |
| COc1cccc(OC)c1Cn1cc(-c2cc(C)cs2)nc1N [Example 52, 1-(2,6-Dimethoxybenzyl)-4-(4-methylthiophene-2-yl)-1H-imidazole-2-ylamine] | < 0.6 |
| COc1ccccc1Cn1cc(-c2ccc(N)cc2)nc1N [Example 53, 4-(4-Aminophenyl)-1-(2-methoxybenzyl)-1H-imidazole-2-ylamine hydrochloride] | < 0.6 |
| COc1cc([N+](=O)[O-])ccc1Cn1cc(-c2ccc(C#N)cc2)nc1N [Example 54, 4-[2-Amino-1-(2-methoxy-4-nitrobenzyl)-1H-imidazole-4-yl]benzonitrile] | > 0.6 |
| COc1ccccc1Cn1cc(-c2cccc(NS(=O)(=O)c3ccc(C(C)C)cc3)c2)nc1N [Example 55, N-{3-[2-Amino-1-(2-methoxybenzyl)-1H-imidazole-4-yl]phenyl}-4-isopropylbenzenesulfonamide] | < 0.6 |
| COc1ccccc1Cn1cc(-c2cccc(NS(=O)(=O)c3ccccc3)c2)nc1N [Example 56, N-{3-[2-Amino-1-(2-methoxybenzyl)-1H-imidazole-4-yl]phenyl}benzenesulfonamide] | < 0.6 |
| COc1ccccc1Cn1cc(-c2cccc(NS(C)(=O)=O)c2)nc1N [Example 57, N-{3-[2-Amino-1-(2-methoxybenzyl)-1H-imidazole-4-yl]phenyl}methanesulfonamide] | < 0.6 |
| COc1ccccc1Cn1cc(-c2cccc(NC(=O)c3ccccc3)c2)nc1N [Example 58, N-{3-[2-Amino-1-(2-methoxybenzyl)-1H-imidazole-4-yl]phenyl}benzamide] | < 0.6 |
| COc1ccccc1Cn1cc(-c2ccc(NS(=O)(=O)c3ccccc3)cc2)nc1N [Example 59, N-{4-[2-Amino-1-(2-methoxybenzyl)-1H-imidazole-4-yl]phenyl}benzenesulfonamide] | < 0.6 |
| COc1ccccc1Cn1cc(-c2cccc(NS(=O)(=O)c3cccs3)c2)nc1N [Example 60, Thiophene-2-sulfonic acid {3-[2-amino-1-(2-methoxybenzyl)-1H-imidazole-4-yl]phenyl}amide] | < 0.6 |
| COc1ccccc1Cn1cc(-c2cccnc2)nc1N [Example 61, 1-(2-Methoxybenzyl)-4-pyridine-3-yl-1H-imidazole-2-ylamine] | < 0.6 |
| COc1ccc(-c2nc(Cc3ccccc3OC)c(N)[nH]2)cc1 [Example 62, 5-(2-Methoxybenzyl)-2-(4-methoxyphenyl)-3H-imidazole-4-ylamine hydrochloride] | > 0.6 |
| COc1ccccc1Cn1cc(-c2cccc(NS(=O)(=O)c3ccc(-c4ccccc4)cc3)c2)nc1N [Example 63, Biphenyl-4-sulfonic acid {3-[2-amino-1-(2-methoxybenzyl)-1H-imidazole-4-yl]phenyl}amide] | < 0.6 |
| COc1ccccc1Cn1cc(-c2cccc(NS(=O)(=O)C(C)C)c2)nc1N [Example 64, Propane-2-sulfonic acid {3-[2-amino-1-(2-methoxybenzyl)-1H-imidazole-4-yl]phenyl}amide] | < 0.6 |
